This note sets out measurements from patent US12629406B2, “Alterations in endothelin receptors following hemorrhage and resuscitation by centhaquin” (MIDWESTERN UNIVERSITY, priority 2018, dated 2026).

A short description of assay [1]: Renal medullary blood perfusion (laser Doppler) in hemorrhaged rats. It is filed as in vivo, rat. The method, then: Determination of cardiovascular response. The animals were anesthetized with urethane dissolved in isotonic saline. Urethane was administered in a dose of 1.5 g per kg body weight via intraperitoneal injection. Urethane was selected as an anesthetic agent, because it produces long lasting (8-10 hours) anesthesia with minimal cardiovascular and respiratory system depression. It produces a level of surgical anesthesia characterized by preservation of cardiovascular reflexes (Maggi and Meli 1986). Briefly, anaesthetized rats were immobilized on a surgical board equipped with controlled heating pad. […] MAP and HR were measured by cannulating the left femoral artery with pressure catheter SPR-320 (Millar Instruments), connected to the ML221 bridge amplifier (AD Instruments) through AEC-10C connector and the signals were acquired (1000 S^−1) using PowerLab 16/30 data acquisition system (Gulati et al. 2012; Pacher et al. 2008). […]
Induction of Hemorrhagic Shock. […] Measured hematocrit levels were similar in various groups. […]
Experimental design. […] Additional experiments were also carried out where the amount of norepinephrine (a very commonly used vasopressor during resuscitation) required to maintain MAP at 70 mmHg in normal saline (NS) or centhaquin (0.01 mg/kg) treated rats (volume equal to blood loss) was determined. […]

Assay [2] can be described thus: Renal blood flow of hemorrhaged rats subjected to 20 minutes of renal artery occlusion. It is filed as in vivo, rat. The method, then:
Effect of centhaquin on renal blood perfusion of hemorrhaged rats. Hemorrhaged rats were resuscitated with vehicle (saline) or centhaquin low dose (0.01 mg/kg) or high dose (0.1 mg/kg). The effect of centhaquin on renal blood perfusion was measured before the induction of shock, 30 minutes after shock (hemorrhage) and 10, 30, 60, 90 and 120 minutes after resuscitation. […] This improved renal medullary blood perfusion is indicative of a use of centhaquin to prevent or treat injury to the kidneys (FIG. 5). […] A low dose of 0.02 mg/kg of centhaquin was also found to be effective in increasing the renal blood flow of hemorrhaged rats subjected to 20 minutes of renal artery occlusion.

Consider `Cc1cccc(N2CCN(CCc3ccc4ccccc4n3)CC2)c1` [centhaquin, 2-[2-(4-(3-methyphenyl)-1-piperazinyl)]ethyl-quinoline], for which the “renal blood perfusion compared to equal volume of saline” value was “significantly improved” in assay [1] (hemorrhaged female rats) and “significantly improved” in assay [1] (hemorrhaged male rats, low doses of centhaquin). For the same compound, the “increasing the renal blood flow” value in assay [2] (high dose 0.2 mg/kg, versus 0.02 mg/kg) is “did not have the same efficacy”; in assay [2] (low dose 0.02 mg/kg), “effective”.
